# “Also recorded” adds a separate entry of the source. Where two headings read alike, the source gives them in different places.
# Tests used:
# [1] = system: endogenous receptors in A431 cells; experiment: LOPAC library agonist screening with biosensor cellular assay (DMR); type: cell-based, human; conditions: for identification of beta-adrenoceptor agonists as hits in the agonist screen: 1 microM
# Procedure: (§1) Corning® Epic® wavelength interrogation system was used.
# Furthermore, a ligand-induced DMR is a real time kinetic response containing many useful parameters (e.g., phases, amplitudes and kinetics) for analyzing ligand pharmacology. The LOPAC library was used to screen agonists for endogenous receptors in A431 cells using real time kinetic measurements.
# First, the response in terms of wavelength shift between before and 2 min after stimulation was calculated.
# Second, the responses in terms of wavelength shift between before and 50 min after stimulation were calculated.
# Third, the responses in terms of wavelength shift between 2 min and 50 min after stimulation were calculated. The difference in resonant wavelength between the two time points was plotted as a function of compounds (FIG. 8).
# [2] = target: T1, histamine receptor subtype 1 (H1R) (Homo sapiens, UniProt P35367); experiment: Antagonist pretreatment against the histamine-induced DMR signal in A431 cells; type: cell-based; parameters: endogenous in cells; host or cells: A431 (human epidermoid carcinoma), quiescent after serum starvation; conditions: pretreatment of A431 with compound at 1 μM
# [3] = target: T1, histamine receptor subtype 1 (H1R); experiment: Dual receptor-specific antagonist screening (LOPAC), histamine response; type: cell-based; parameters: endogenous in cells; host or cells: A431 (human epidermoid carcinoma), quiescent after serum starvation
# [4] = target: T2, β2-adrenergic receptor (β2AR) (Homo sapiens, UniProt P07550); experiment: Dual receptor-specific antagonist screening (LOPAC), epinephrine response; type: cell-based; parameters: A431 cells endogenously express both PAR1 and β2AR; endogenous in cells; host or cells: A431 (human epidermoid carcinoma), quiescent after serum starvation
# [5] = target: T2, β2-adrenergic receptor (β2AR); conditions: for type of DMR signal induced: A431 cells, 2 nanomolar in b161/b162
# Excerpt: as §1
# A431 endogenously expresses large numbers of the β2AR, but neither β1 nor β3-ARs. […] The DMR signal consists of a small decreased signal (i.e., N-DMR) with a short duration, followed by an increased signal (i.e., P-DMR) to an elevated level.
# [6] = target: T2, β2-adrenergic receptor (β2AR); conditions: co-stimulation with 2 nM epinephrine and 1 μM histamine; high doses
# [7] = target: T1, histamine receptor subtype 1 (H1R)
# Excerpt: as §1
# To test this possibility, a desensitization assay was used.
# [8] = target: T1, histamine receptor subtype 1 (H1R); conditions: quiescent A431 cells
# [9] = A431 cells, compound at 1 microM, real time kinetic
# [10] = compound 1 microM for one hour, then cocktail of epinephrine and histamine
# T1 sequence (P35367 whole entry): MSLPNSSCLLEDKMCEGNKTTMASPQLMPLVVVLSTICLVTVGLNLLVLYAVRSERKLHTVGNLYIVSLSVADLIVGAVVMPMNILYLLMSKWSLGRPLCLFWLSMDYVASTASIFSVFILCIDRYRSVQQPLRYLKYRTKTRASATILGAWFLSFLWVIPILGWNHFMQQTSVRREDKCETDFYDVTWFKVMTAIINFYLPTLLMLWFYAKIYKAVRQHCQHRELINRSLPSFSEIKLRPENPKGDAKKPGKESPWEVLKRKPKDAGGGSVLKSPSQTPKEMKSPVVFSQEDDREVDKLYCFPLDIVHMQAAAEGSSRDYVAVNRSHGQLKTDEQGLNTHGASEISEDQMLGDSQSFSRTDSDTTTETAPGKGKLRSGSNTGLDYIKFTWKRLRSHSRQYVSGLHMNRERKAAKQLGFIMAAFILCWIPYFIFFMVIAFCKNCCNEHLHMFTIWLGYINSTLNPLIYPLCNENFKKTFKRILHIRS
compound,measurement,setting,value
CC(C)NCC(O)c1ccc(NS(C)(=O)=O)cc1 (racemic) [(±)-Sotalol],ligand-induced DMR signal in agonist screening,[1]; [9],did not result in any apparent DMR signals
CN(C)CCC(c1ccc(Br)cc1)c1ccccn1 (racemic) [(±)-brompheniramine],ligand-induced DMR signal in agonist screening,[1]; [9],did not lead to any DMR signal
same,effect on the DMR signal induced by 1 μM histamine,[2],completely inhibited
same,effect on the histamine response in the co-stimulation,[3],completely or almost completely attenuated
COCCc1ccc(OCC(O)CNC(C)C)cc1 (racemic) [(±)-metoprolol],ligand-induced DMR signal in agonist screening,[1]; [9],did not result in any apparent DMR signals
CC(C)NCC(O)COc1cccc2ccccc12 (racemic) [(±)-propranolol],ligand-induced DMR signal in agonist screening,[1]; [9],did not result in any apparent DMR signals
CC(C)(C)NCC(O)COc1cccc2[nH]c(=O)[nH]c12 (racemic) [(±)CGP12177],ligand-induced DMR signal in agonist screening,[1]; [9],Gs-like DMR which only consists of the prolonged P-DMR event without the initial N-DMR event
CN(C)CCC(c1ccc(Cl)cc1)c1ccccn1 (racemic) [(±)chlorpheniramine],ligand-induced DMR signal in agonist screening,[1]; [9],did not lead to any DMR signal
CN(C)CC[C@@H](c1ccc(Br)cc1)c1ccccn1 [(+)-brompheniramine],ligand-induced DMR signal in agonist screening,[1]; [9],did not lead to any DMR signal
same,effect on the histamine response in the co-stimulation,[3],completely or almost completely attenuated
CN(C)CC[C@@H](c1ccc(Cl)cc1)c1ccccn1 [(+)-chlorpheniramine],ligand-induced DMR signal in agonist screening,[1]; [9],did not lead to any DMR signal
CC(C)NC[C@H](O)COc1cccc2ccccc12 [(S)-propranolol],ligand-induced DMR signal in agonist screening,[1]; [9],did not result in any apparent DMR signals
"Cc1ccc(OCC(O)C(C)NC(C)C)c2c1CCC2 (stereo not shown) [ICI 118,551]",ligand-induced DMR signal in agonist screening,[1]; [9],did not result in any apparent DMR signals
same,effect on the histamine response in the co-stimulation,[3]; [10],little impact
CC(C)NCC(O)c1ccc(O)c(O)c1 (stereo not drawn) [R(−)isoproterenol],ligand-induced DMR signal in agonist screening,[1]; [9],typical Gs-type DMR signal
CC(C)(C)NC[C@H](O)COc1nsnc1N1CCOCC1 [S(−)-timolol],ligand-induced DMR signal in agonist screening,[1]; [9],did not result in any apparent DMR signals
CN(C)CCCCSC(=N)N [SKF91488],effect on the DMR signal induced by 1 μM histamine,[2],did not have obvious impact
c1cc(CN2CCCCC2)cc(OCCCNc2nc3ccccc3s2)c1 [SKF95282],ligand-induced DMR signal in agonist screening,[1]; [9],DMR that was similar to pindolol
same,effect on the epinephrine response in the co-stimulation,[4]; [10],partial desensitization
CCc1ccccc1OC[C@@H](O)CN[C@H]1CCCc2ccccc21 [SR 59230A],ligand-induced DMR signal in agonist screening,[1]; [9],did not result in any apparent DMR signals
same,effect on the histamine response in the co-stimulation,[3]; [10],little impact
same,effect on the epinephrine response in the co-stimulation,[4]; [10],inhibited or partially attenuated
C=CCc1ccccc1OCC(O)CNC(C)C (stereo not shown) [alprenolol],ligand-induced DMR signal in agonist screening,[1]; [9],did not result in any apparent DMR signals
same,effect on the histamine response in the co-stimulation,[3]; [10],little impact
CCCCc1oc2ccccc2c1C(=O)c1cc(I)c(OCCN(CC)CC)c(I)c1 [amiodarone],identification of beta-adrenoceptor agonists as hits in the agonist screen,[1]; A431 cells,false negative
CN(C)CCC=C1c2ccccc2CCc2ccccc21 [amitriptyline],effect on the epinephrine response in the co-stimulation,[4]; [10],little effect
Clc1ccc2c(c1)C(N1CCNCC1)=Nc1ccccc1O2 [amoxapine],effect on the epinephrine response in the co-stimulation,[4]; [10],little effect
CC(C)NCC(O)COc1ccc(CCOCC2CC2)cc1 (stereo not shown) [betaxolol],ligand-induced DMR signal in agonist screening,[1]; [9],did not result in any apparent DMR signals
same,effect on the histamine response in the co-stimulation,[3]; [10],little impact
CN1CCC[C@@H]1CCO[C@](C)(c1ccccc1)c1ccc(Cl)cc1 [clemastine],ligand-induced DMR signal in agonist screening,[1]; [9],did not lead to any DMR signal
Clc1ccc(Cn2c(CN3CCCC3)nc3ccccc32)cc1 [clemizole],ligand-induced DMR signal in agonist screening,[1]; [9],did not lead to any DMR signal
same,effect on the DMR signal induced by 1 μM histamine,[2],completely inhibited
same,effect on the histamine response in the co-stimulation,[3]; [10],completely or almost completely attenuated
CN(C)CCOC(C)(c1ccccc1)c1ccccn1 (stereo not shown) [doxylamine],ligand-induced DMR signal in agonist screening,[1]; [9],did not lead to any DMR signal
same,effect on the histamine response in the co-stimulation,[3]; [10],completely or almost completely attenuated
CNC[C@H](O)c1ccc(O)c(O)c1 [epinephrine],type of DMR signal induced,[5],Gs-type DMR signal
same,type of DMR signal induced,[5]; listed as Epinephrine,biphasic Gs-type DMR response
same,Hill slope of the epinephrine DMR response,"[5]; quiescent A431 cells, n=10",0.95
same,effect of pretreatment on the epinephrine response,[6],completely inhibited
NC(N)=Nc1nc(CSCCC(N)=NS(N)(=O)=O)cs1 [famotidine],ligand-induced DMR signal in agonist screening,[1]; [9],DMR that was similar to pindolol
same,effect on the epinephrine response in the co-stimulation,[4]; [10],partial desensitization
CC(C)(C(=O)O)c1ccc(C(O)CCCN2CCC(C(O)(c3ccccc3)c3ccccc3)CC2)cc1 (stereo not shown) [fexofenadine],ligand-induced DMR signal in agonist screening,[1]; [9],did not lead to any DMR signal
NCCc1c[nH]cn1 [histamine],Hill slope for inhibition of the histamine response,[7],1.4
same,effect of pretreatment on the histamine response,[7],completely inhibited
same,ligand-induced DMR signal in agonist screening,[1]; [9],biphasic Gq-type DMR signal; also recorded: Gq-like DMR signal
same,type of DMR (optical) signal induced,[8],dose-dependent and saturable Gq-type optical signal
same,Hill coefficient of the histamine saturation curve,[8]; n=6,1.87
same,effect of pretreatment on the epinephrine response,[6],slightly attenuated
same,effect on the histamine response in the co-stimulation,[3],complete desensitization
same,effect on the epinephrine response in the co-stimulation,[4]; [10],but not to epinephrine
N=C(N)SCCc1cnc[nH]1 [imetit],ligand-induced DMR signal in agonist screening,[1]; [9],did not lead to any obvious DMR signal
CN1CCC(=C2c3ccccc3CC(=O)c3sccc32)CC1 [ketotifen],ligand-induced DMR signal in agonist screening,[1]; [9],did not lead to any DMR signal
CNCCCC12CCC(c3ccccc31)c1ccccc12 [maprotiline],effect on the epinephrine response in the co-stimulation,[4]; [10],little effect
CN(C)CCN(Cc1cccs1)c1ccccn1 [methapyrilene],ligand-induced DMR signal in agonist screening,[1]; [9],did not lead to any DMR signal
CNCCC=C1c2ccccc2CCc2ccccc21 [nortriptyline],effect on the epinephrine response in the co-stimulation,[4],little effect
CN(C)CCC(c1ccccc1)c1ccccn1 (stereo not shown) [pheniramine],ligand-induced DMR signal in agonist screening,[1]; [9],did not lead to any DMR signal
same,effect on the histamine response in the co-stimulation,[3]; [10],partial inhibition
CC(COc1ccccc1)N(CCCl)Cc1ccccc1 (stereo not shown) [phenoxybenzamine],effect on the histamine response in the co-stimulation,[3],almost completely inhibited
same,effect on the epinephrine response in the co-stimulation,[4]; [10],little effect
CC(CN1c2ccccc2Sc2ccccc21)N(C)C (stereo not shown) [promethazine],ligand-induced DMR signal in agonist screening,[1]; [9],did not lead to any DMR signal
COc1ccc(CN(CCN(C)C)c2ccccn2)cc1 [pyrilamine],ligand-induced DMR signal in agonist screening,[1]; [9],did not lead to any DMR signal
CC(C)(C)c1ccc(C(O)CCCN2CCC(C(O)(c3ccccc3)c3ccccc3)CC2)cc1 (stereo not shown) [terfenadine],ligand-induced DMR signal in agonist screening,[1]; [9],did not lead to any DMR signal
S=C(NC1CCCCC1)N1CCC(c2cnc[nH]2)CC1 [thioperamide],effect on the DMR signal induced by 1 μM histamine,[2],did not have obvious impact
Cc1ccc(/C(=C\CN2CCCC2)c2ccccn2)cc1 [triprolidine],ligand-induced DMR signal in agonist screening,[1]; [9],did not lead to any significant DMR signal
same,effect on the DMR signal induced by 1 μM histamine,[2],completely inhibited
same,effect on the histamine response in the co-stimulation,[3]; [10],completely or almost completely attenuated
(S)-(−)-propafenone,ligand-induced DMR signal in agonist screening,[1]; [9],did not result in any apparent DMR signals
same,effect on the epinephrine response in the co-stimulation,[4]; [10],inhibited or partially attenuated
(±)-ephedrine,identification of beta-adrenoceptor agonists as hits in the agonist screen,[1]; A431 cells,false negative
(±)isoproterenol,ligand-induced DMR signal in agonist screening,[1]; [9],typical Gs-type DMR signal
R(−)-α-methyl-histamine,ligand-induced DMR signal in agonist screening,[1],did not lead to any obvious DMR signal
Ruthernium red,ligand-induced DMR signal in agonist screening,[1]; [9],Gs-like DMR signal but with much larger amplitude
S(−)pindolol,ligand-induced DMR signal in agonist screening,[1]; [9],Gs-like DMR which only consists of the prolonged P-DMR event without the initial N-DMR event
